In patent publication US9580449B2, “Compositions and methods for the production of pyrimidine and pyridine compounds with BTK inhibitory activity” (Merck Patent GmbH, priority 2011, dated 2017):

Biological target: full-length human BTK (Homo sapiens (Human), UniProt Q06187)
Assay: BTK IC50 enzyme assay (microfluidic off-chip mobility shift kinase assay)
Format: biochemical
Settings: incubated for 90 min. at 27 C; read-out: Time Dependent BTK Enzyme Assay IC50
Summary of the method: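 Off-chip microfluidic mobility shift assay on full-length human BTK; substrate-to-product conversion measured by charge/mass separation of phosphorylated peptide after reaction stop.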

full-length human BTK, sequence (Q06187 whole entry): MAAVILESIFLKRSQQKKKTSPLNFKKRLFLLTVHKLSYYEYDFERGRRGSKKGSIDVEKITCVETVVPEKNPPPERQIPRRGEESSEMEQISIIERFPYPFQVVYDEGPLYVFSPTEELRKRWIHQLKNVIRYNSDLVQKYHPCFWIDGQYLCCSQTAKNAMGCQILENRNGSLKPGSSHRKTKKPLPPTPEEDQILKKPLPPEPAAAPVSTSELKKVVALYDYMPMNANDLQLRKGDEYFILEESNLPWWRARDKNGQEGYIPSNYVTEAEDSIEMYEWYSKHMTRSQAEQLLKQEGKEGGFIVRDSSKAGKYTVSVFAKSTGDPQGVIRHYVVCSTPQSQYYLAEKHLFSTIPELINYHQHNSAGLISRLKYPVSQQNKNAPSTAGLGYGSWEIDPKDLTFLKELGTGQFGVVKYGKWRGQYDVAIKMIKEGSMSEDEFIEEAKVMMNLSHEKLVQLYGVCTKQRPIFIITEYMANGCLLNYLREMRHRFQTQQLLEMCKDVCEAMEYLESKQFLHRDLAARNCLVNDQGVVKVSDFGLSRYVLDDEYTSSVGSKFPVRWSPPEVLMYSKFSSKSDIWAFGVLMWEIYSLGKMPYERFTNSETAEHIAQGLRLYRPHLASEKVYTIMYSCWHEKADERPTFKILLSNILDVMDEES

Compound | IC50 [nM]
Nc1ncnc(Oc2ccc(Oc3ccccc3)cc2)c1-c1cccc(NC(=O)/C=C/CN2CCCC(F)(F)C2)c1 [A301, (E)-N-(3-(4-amino-6-(4-phenoxyphenoxy)pyrimidin-5-yl)phenyl)-4-(3,3-difluoropiperidin-1-yl)but-2-enamide] | > 1000
C=CC(=O)N1CCO[C@@H](COc2ncnc(N)c2-c2ccc(Oc3ccc(C#N)cc3)cc2)C1 [A200, (R)-4-(4-(4-((4-acryloylmorpholin-2-yl)methoxy)-6-aminopyrimidin-5-yl)phenoxy)benzonitrile] | < 1000
C=CC(=O)N1CCCC(Nc2ncncc2-c2ccc(Oc3ccccc3)cc2)C1 (stereo not drawn) [A284, 1-(3-((5-(4-phenoxyphenyl)pyrimidin-4-yl)amino)piperidin-1-yl)prop-2-en-1-one] | < 1000
CN(C)C/C=C/C(=O)N1C2CCC1CC(CNc1ncnc(N)c1-c1ccc(Oc3ccccc3)cc1)C2 (stereo not drawn) [A71, (E)-1-(3-(((6-amino-5-(4-phenoxyphenyl)pyrimidin-4-yl)amino)methyl)-8-azabicyclo[3.2.1]octan-8-yl)-4-(dimethylamino)but-2-en-1-one] | < 1000
C=CC(=O)N1CC2(CC(Nc3ncnc(N)c3-c3ccc(Oc4ccc(C#N)cc4)cc3)C2)C1 [A207, 4-(4-(4-((2-acryloyl-2-azaspiro[3.3]heptan-6-yl)amino)-6-aminopyrimidin-5-yl)phenoxy)benzonitrile] | < 1000
C#CC(=O)N1CC2(CC(Nc3ncnc(N)c3-c3cnn(Cc4ccccc4)c3)C2)C1 [A111, 1-(6-((6-amino-5-(1-benzyl-1H-pyrazol-4-yl)pyrimidin-4-yl)amino)-2-azaspiro[3.3]heptan-2-yl)prop-2-yn-1-one] | < 100
C=CC(=O)Nc1cccc(Oc2ncnc(N)c2-c2cnn(Cc3ccccc3F)c2)c1 [A184, N-(3-((6-amino-5-(1-(2-fluorobenzyl)-1H-pyrazol-4-yl)pyrimidin-4-yl)oxy)phenyl)acrylamide] | < 100
C=CC(=O)Nc1cncc(Nc2ncnc(N)c2-c2ccc(Oc3ccccc3)cc2)c1 [A186, N-(5-((6-amino-5-(4-phenoxyphenyl)pyrimidin-4-yl)amino)pyridin-3-yl)acrylamide] | < 100
NCc1ccc(-c2cnccc2Oc2ccc(Oc3ccccc3)cc2)cc1 [A315, (4-(4-(4-phenoxyphenoxy)pyridin-3-yl)phenyl)methanamine] | > 1000
C=CC(=O)N1CCCC(Nc2nc(N)ncc2-c2ccc(Oc3ccccc3)cc2)C1 (stereo not drawn) [A150, 1-(3-((2-amino-5-(4-phenoxyphenyl)pyrimidin-4-yl)amino)piperidin-1-yl)prop-2-en-1-one] | < 1000
C=CC(=O)Nc1cccc(Oc2ncnc(N)c2-c2cnn(Cc3cccc(C#N)c3)c2)c1 [A203, N-(3-((6-amino-5-(1-(3-cyanobenzyl)-1H-pyrazol-4-yl)pyrimidin-4-yl)oxy)phenyl)acrylamide] | < 100
C=CC(=O)N1CCO[C@@H](COc2ncnc(N)c2-c2cnn(Cc3ccccc3)c2)C1 [A192, (R)-1-(2-(((6-amino-5-(1-benzyl-1H-pyrazol-4-yl)pyrimidin-4-yl)oxy)methyl)morpholino)prop-2-en-1-one] | < 1000
C=CC(=O)Nc1cccc(Oc2ncnc(N)c2-c2ccc(OCc3ccc(F)cc3)cc2)c1 [A344, N-(3-{6-Amino-5-[4-(4-fluoro-benzyloxy)-phenyl]-pyrimidin-4-yloxy}-phenyl)-acrylamide] | < 100
Nc1ncnc(Oc2cccc(NC(=O)/C=C/CN3CCOCC3)c2)c1-c1ccc(Oc2ccccc2)cc1 [A265, (E)-N-(3-((6-amino-5-(4-phenoxyphenyl)pyrimidin-4-yl)oxy)phenyl)-4-morpholinobut-2-enamide] | < 100
CCC(=O)Nc1cccc(-c2cnccc2Oc2ccc(Oc3ccccc3)cc2)c1 [A319, N-(3-(4-(4-phenoxyphenoxy)pyridin-3-yl)phenyl)propionamide] | > 1000
C=CC(=O)Nc1cncc(Oc2ncnc(N)c2-c2cnn(Cc3ccccc3)c2)c1 [A189, N-(5-((6-amino-5-(1-benzyl-1H-pyrazol-4-yl)pyrimidin-4-yl)oxy)pyridin-3-yl)acrylamide] | < 100
C=CC(=O)N1CCO[C@H](COc2ncnc(N)c2-c2cnn(Cc3ccccc3)c2)C1 [A193, (S)-1-(2-(((6-amino-5-(1-benzyl-1H-pyrazol-4-yl)pyrimidin-4-yl)oxy)methyl)morpholino)prop-2-en-1-one] | > 1000
C=CC(=O)Nc1cccc(Oc2ncnc(N)c2-c2ccc(OCc3ccccc3)c(OC)c2)c1 [A256, N-(3-((6-amino-5-(4-(benzyloxy)-3-methoxyphenyl)pyrimidin-4-yl)oxy)phenyl)acrylamide] | < 100
C=CC(=O)Nc1cccc(Oc2ncnc(N)c2-c2cccc(OC(F)(F)F)c2)c1 [A164, N-(3-((6-amino-5-(3-(trifluoromethoxy)phenyl)pyrimidin-4-yl)oxy)phenyl)acrylamide] | > 1000
C=CC(=O)Nc1cccc(Oc2ncnc(N)c2-c2ccc(Oc3ccccn3)cc2)c1 [A162, N-(3-((6-amino-5-(4-(pyridin-2-yloxy)phenyl)pyrimidin-4-yl)oxy)phenyl)acrylamide] | < 100
CC=CC(=O)c1cccc(CNc2ncnc(N)c2-c2ccc(Oc3ccccc3)cc2)c1 [A142, 1-(3-((6-Amino-5-(4-phenoxyphenyl)-pyrimidin-4-ylamino)-methyl)-phenyl)-but-2-en-1-one] | < 100

Other lines, results leading:

IC50 [nM] | Compound
< 100 | C=CC(=O)N1CCC(F)(CNc2ncnc(N)c2-c2ccc(Oc3ccccc3)cc2)CC1 [A225, 1-(4-(((6-amino-5-(4-phenoxyphenyl)pyrimidin-4-yl)amino)methyl)-4-fluoropiperidin-1-yl)prop-2-en-1-one]
< 1000 | CN(C)C/C=C/C(=O)N1CCC(CNc2ncnc(N)c2-c2ccc(Oc3ccccc3)cc2)(C(=O)O)CC1 [A217, (E)-4-(((6-amino-5-(4-phenoxyphenyl)pyrimidin-4-yl)amino)methyl)-1-(4-(dimethylamino)but-2-enoyl)piperidine-4-carboxylic acid]
< 1000 | CN(C)C/C=C/C(=O)N1CCC[C@@H](Nc2ncnc(N)c2-c2ccc(Oc3ccccc3)cc2)C1 [A74, (R,E)-1-(3-((6-amino-5-(4-phenoxyphenyl)pyrimidin-4-yl)amino)piperidin-1-yl)-4-(dimethylamino)but-2-en-1-one]
> 1000 | C=CC(=O)NC1CC2(C1)CC(Nc1ncnc(N)c1-c1ccc(Oc3ccccc3)cc1)C2 (stereo not drawn) [A122, N-(6-((6-amino-5-(4-phenoxyphenyl)pyrimidin-4-v)amino)spiro[3.3]heptan-2-yl)acrylamide]
< 100 | CC#CC(=O)[C@H]1CCC[C@@H](Nc2ncnc(N)c2-c2ccc(Oc3ccccc3)cc2)C1 [A147, 1-((1S,3R)-3-(6-amino-5-(4-phenoxyphenyl)-pyrimidin-4-ylamino)-cyclohexyl)-but-2-yn-1-one]
< 100 | C#CC(=O)N1CC(CCNc2ncnc(N)c2-c2ccc(Oc3ccccc3)cc2)C1 [A104, 1-(3-(2-((6-amino-5-(4-phenoxyphenyl)pyrimidin-4-yl)amino)ethyl)azetidin-1-yl)prop-2-yn-1-one]
> 1000 | C=CC(=O)NCC1CCCN(c2ncnc(N)c2-c2ccc(Oc3ccccc3)cc2)C1 (stereo not drawn) [A309, N-((1-(6-amino-5-(4-phenoxyphenyl)pyrimidin-4-yl)piperidin-3-yl)methyl)acrylamide]
> 1000 | C=CC(=O)N[C@H]1CC[C@@H](Nc2ncnc(N)c2-c2ccc(OCc3ccccc3)cc2)CC1 [A154]
> 1000 | C=CC(=O)N1CCC(CNc2ncnc(N)c2-c2ccc(C(=O)Nc3ccccc3)cc2)CC1 [A157, 4-(4-(((1-acryloylpiperidin-4-yl)methyl)amino)-6-aminopyrimidin-5-yl)-N-phenylbenzamide]
> 1000 | C=CC(=O)N1CCC(CNc2nc(C)nc(N)c2-c2ccc(Oc3ccccc3)cc2)CC1 [A36, 1-(4-(((6-amino-2-methyl-5-(4-phenoxyphenyl)pyrimidin-4-yl)amino)methyl)piperidin-1-yl)prop-2-en-1-one]
< 1000 | C=CC(=O)N1CCC(CNc2ncnc(N)c2-c2ccc(OC3CCCCC3)cc2)CC1 [A99, 1-(4-(((6-amino-5-(4-(cyclohexyloxy)phenyl)pyrimidin-4-yl)amino)methyl)piperidin-1-yl)prop-2-en-1-one]
> 1000 | C=CC(=O)N1CCC(CNc2ncnc(N)c2-c2ccc(OC(F)(F)F)cc2)CC1 [A78, 1-(4-(((6-amino-5-(4-(trifluoromethoxy)phenyl)pyrimidin-4-yl)amino)methyl)piperidin-1-yl)prop-2-en-1-one]
< 100 | CC#CC(=O)N1CC[C@@H](CNc2ncnc(N)c2-c2ccc(Oc3ccccc3)cc2)[C@H](O)C1 [A215, 1-((3S,4S)-4-(((6-amino-5-(4-phenoxyphenyl)pyrimidin-4-yl)amino)methyl)-3-hydroxypiperidin-1-yl)but-2-yn-1-one]
< 1000 | C=CC(=O)N1CCC(CNc2ccnc(N)c2-c2ccc(Oc3ccccc3)cc2)CC1 [A76, 1-(4-(((2-amino-3-(4-phenoxyphenyl)pyridin-4-yl)amino)methyl)piperidin-1-yl)prop-2-en-1-one]
< 100 | C=CC(=O)N1CCC(CNc2ncnc(N)c2-c2ccc(Cc3ccccc3)cc2)CC1 [A41, 1-(4-(((6-amino-5-(4-benzylphenyl)pyrimidin-4-yl)amino)methyl)piperidin-1-yl)prop-2-en-1-one]
< 1000 | CN(C)C/C=C/C(=O)N1CCC2(CC(Nc3ncnc(N)c3-c3ccc(Oc4ccccc4)cc3)C2)C1 (stereo not drawn) [A226, (E)-1-(2-((6-amino-5-(4-phenoxyphenyl)pyrimidin-4-yl)amino)-6-azaspiro[3.4]octan-6-yl)-4-(dimethylamino)but-2-en-1-one]
< 100 | C=CC(=O)N1CCC=C(c2c(N)ncnc2Nc2ccc(Oc3ccccc3)cc2)C1 [A273, 1-(3-(4-amino-6-((4-phenoxyphenyl)amino)pyrimidin-5-yl)-5,6-dihydropyridin-1(2H)-yl)prop-2-en-1-one]
< 100 | C=CC(=O)N1CCCC(Nc2ncnc(N)c2-c2ccc(OCc3ccccc3)cc2)C1 (stereo not drawn) [A269, 1-(3-((6-amino-5-(4-(benzyloxy)phenyl)pyrimidin-4-yl)amino)piperidin-1-yl)prop-2-en-1-one]
